Test results as given in patent US20240366564A1, “Use of Chlorophyll Derivatives for the Treatment of SARS-CoV-2 Infection” (priority 2021, published 2024).
“Also recorded” adds a separate entry of the source. Where two headings read alike, the source gives them in different places.

Experiments:
[1] = molecular target: T1, binding of SARS-CoV-2 Spike protein (S1 subunit) to ACE2 (UniProt P0DTC2+Q9BYF1); assay: biochemical
T1 construct: a fusion protein of the SARS-CoV-2 spike protein S1 subunit and the horseradish peroxidase (HRP) enzyme

[2] = system: SARS-CoV-2 USA-WA1/2020 virus; assay type: cell-based
[3] = system: SARS-CoV-2-infected permissive cell lines (Vero E6, Huh-7.5, A549 ACE2+, HT1080 ACE2+)

T1 sequence (Q9BYF1 18-740, one chain of several): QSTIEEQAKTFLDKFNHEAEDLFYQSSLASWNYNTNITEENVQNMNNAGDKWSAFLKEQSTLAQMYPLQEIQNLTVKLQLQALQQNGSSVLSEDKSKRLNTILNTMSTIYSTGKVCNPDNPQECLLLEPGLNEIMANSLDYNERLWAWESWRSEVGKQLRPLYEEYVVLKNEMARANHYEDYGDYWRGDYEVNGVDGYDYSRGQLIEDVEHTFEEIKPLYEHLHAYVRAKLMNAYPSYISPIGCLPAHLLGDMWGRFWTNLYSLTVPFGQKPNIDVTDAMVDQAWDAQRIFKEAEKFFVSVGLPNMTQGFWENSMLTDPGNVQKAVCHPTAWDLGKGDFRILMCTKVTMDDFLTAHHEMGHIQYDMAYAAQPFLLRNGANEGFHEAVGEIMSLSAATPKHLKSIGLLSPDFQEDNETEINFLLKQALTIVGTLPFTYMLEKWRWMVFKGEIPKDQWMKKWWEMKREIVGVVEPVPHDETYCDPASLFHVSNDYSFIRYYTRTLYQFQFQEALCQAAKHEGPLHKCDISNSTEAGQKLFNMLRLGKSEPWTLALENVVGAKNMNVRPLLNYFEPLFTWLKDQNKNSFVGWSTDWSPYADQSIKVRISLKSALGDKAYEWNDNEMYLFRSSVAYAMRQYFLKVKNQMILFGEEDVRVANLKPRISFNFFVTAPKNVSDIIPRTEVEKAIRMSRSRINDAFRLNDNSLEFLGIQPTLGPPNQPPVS

Compound	Active (Y or N) [1]	further results
C1=Cc2nc1cc1ccc([nH]1)c(-c1ccccc1)c1nc(cc3ccc([nH]3)c2-c2ccccc2)C=C1 [5,15-diphenyl-21H,23H-porphine]	N	
C=Cc1c(C)c2cc3nc(c(CC(=O)O)c4[nH]c(cc5nc(cc1[nH]2)C(C)=C5CC)c(C)c4C(=O)O)[C@@H](CCC(=O)O)[C@@H]3C [Chlorin E6]	Y (weak)	IC50 ([1]; read-out: IC50): 5000 nM
C=Cc1c(C)c2cc3nc(c4c5[n-]c(cc6nc(cc1[n-]2)C(C)=C6CC)c(C)c5C(=O)[C@@H]4C(=O)OC)[C@@H](CCC(=O)OC/C=C(\C)CCC[C@H](C)CCC[C@H](C)CCCC(C)C)[C@@H]3C.[Mg+2] [Chlorophyll A]	N	
C=Cc1c(C)c2cc3nc(c4c5[n-]c(cc6nc(cc1[n-]2)C(C=O)=C6CC)c(C)c5C(=O)[C@@H]4C(=O)OC)[C@@H](CCC(=O)OC/C=C(\C)CCC[C@H](C)CCC[C@H](C)CCCC(C)C)[C@@H]3C.[Mg+2] [Chlorophyll B]	N	
C=Cc1c(C)c2cc3nc(c4c5[nH]c(cc6nc(cc1[nH]2)C(C)=C6CC)c(C)c5C(=O)[C@@H]4C(=O)OC)[C@@H](CCC(=O)O)[C@@H]3C [Pheophorbide A]	Y	IC50 [1]: 500 nM; inhibition of the binding of SARS-CoV-2 Spike protein to ACE2 (in words) [1]: dose dependent decrease in binding; also recorded: dose-dependent inhibition; antiviral activity under light exposure versus dark [2]: generally improved; antiviral activity without photoactivation [2]: exhibit antiviral activity in the dark; antiviral effect with pre-treatment versus treatment after infection [2]: more pronounced; inhibition of SARS-CoV-2 infection in culture [2]: significantly inhibits; toxicity to the infected cells relative to antiviral doses [3]: antiviral activity was detected at doses lower than the dosing where pheophorbide A was toxic
C1=Cc2cc3ccc(cc4nc(cc5ccc(cc1n2)[nH]5)C=C4)[nH]3 [Porphine]	N	
C=CC1=C(C)c2cc3[nH]c(cc4nc(cc5[nH]c(cc1n2)c(C)c5CCC(=O)O)C(CCC(=O)O)=C4C)c(C)c3C=C [Protoporphyrin IX]		IC50 [1]: 1200 nM
C[n+]1ccc(-c2c3nc(c(-c4cc[n+](C)cc4)c4ccc([nH]4)c(-c4cc[n+](C)cc4)c4ccc([nH]4)c(-c4cc[n+](C)cc4)c4nc2C=C4)C=C3)cc1 [TmPyP4]	N	
Coproporphyrin III	N	
MnTBAP	N	
N-Methyl Mesoporphyrin	N	
N-Methyl Protoporphyrin	N	
Verteporfin	Y	IC50 ([1]; read-out: IC50): 225 nM
Vitamin B12	N	inhibition of the binding of SARS-CoV-2 Spike protein to ACE2 (in words) [1]: non-active
